pIC50: −log10 of the molar value.
Biological target: human N-type Ca channel (Homo sapiens, UniProt Q00975)
Experiment: Measurement of electrophysiological response (QPatch)
Conditions: for pIC50: concentration range 0.3-10 μM
[1] = N Type IC50 Data Qpatch Pulse = 1, Pulse = 1
[2] = N Type IC50 Data Qpatch Pulse = 15, Pulse = 15
[3] = concentration range 0.01-0.3 μM

human N-type Ca channel, sequence (Q00975 whole entry): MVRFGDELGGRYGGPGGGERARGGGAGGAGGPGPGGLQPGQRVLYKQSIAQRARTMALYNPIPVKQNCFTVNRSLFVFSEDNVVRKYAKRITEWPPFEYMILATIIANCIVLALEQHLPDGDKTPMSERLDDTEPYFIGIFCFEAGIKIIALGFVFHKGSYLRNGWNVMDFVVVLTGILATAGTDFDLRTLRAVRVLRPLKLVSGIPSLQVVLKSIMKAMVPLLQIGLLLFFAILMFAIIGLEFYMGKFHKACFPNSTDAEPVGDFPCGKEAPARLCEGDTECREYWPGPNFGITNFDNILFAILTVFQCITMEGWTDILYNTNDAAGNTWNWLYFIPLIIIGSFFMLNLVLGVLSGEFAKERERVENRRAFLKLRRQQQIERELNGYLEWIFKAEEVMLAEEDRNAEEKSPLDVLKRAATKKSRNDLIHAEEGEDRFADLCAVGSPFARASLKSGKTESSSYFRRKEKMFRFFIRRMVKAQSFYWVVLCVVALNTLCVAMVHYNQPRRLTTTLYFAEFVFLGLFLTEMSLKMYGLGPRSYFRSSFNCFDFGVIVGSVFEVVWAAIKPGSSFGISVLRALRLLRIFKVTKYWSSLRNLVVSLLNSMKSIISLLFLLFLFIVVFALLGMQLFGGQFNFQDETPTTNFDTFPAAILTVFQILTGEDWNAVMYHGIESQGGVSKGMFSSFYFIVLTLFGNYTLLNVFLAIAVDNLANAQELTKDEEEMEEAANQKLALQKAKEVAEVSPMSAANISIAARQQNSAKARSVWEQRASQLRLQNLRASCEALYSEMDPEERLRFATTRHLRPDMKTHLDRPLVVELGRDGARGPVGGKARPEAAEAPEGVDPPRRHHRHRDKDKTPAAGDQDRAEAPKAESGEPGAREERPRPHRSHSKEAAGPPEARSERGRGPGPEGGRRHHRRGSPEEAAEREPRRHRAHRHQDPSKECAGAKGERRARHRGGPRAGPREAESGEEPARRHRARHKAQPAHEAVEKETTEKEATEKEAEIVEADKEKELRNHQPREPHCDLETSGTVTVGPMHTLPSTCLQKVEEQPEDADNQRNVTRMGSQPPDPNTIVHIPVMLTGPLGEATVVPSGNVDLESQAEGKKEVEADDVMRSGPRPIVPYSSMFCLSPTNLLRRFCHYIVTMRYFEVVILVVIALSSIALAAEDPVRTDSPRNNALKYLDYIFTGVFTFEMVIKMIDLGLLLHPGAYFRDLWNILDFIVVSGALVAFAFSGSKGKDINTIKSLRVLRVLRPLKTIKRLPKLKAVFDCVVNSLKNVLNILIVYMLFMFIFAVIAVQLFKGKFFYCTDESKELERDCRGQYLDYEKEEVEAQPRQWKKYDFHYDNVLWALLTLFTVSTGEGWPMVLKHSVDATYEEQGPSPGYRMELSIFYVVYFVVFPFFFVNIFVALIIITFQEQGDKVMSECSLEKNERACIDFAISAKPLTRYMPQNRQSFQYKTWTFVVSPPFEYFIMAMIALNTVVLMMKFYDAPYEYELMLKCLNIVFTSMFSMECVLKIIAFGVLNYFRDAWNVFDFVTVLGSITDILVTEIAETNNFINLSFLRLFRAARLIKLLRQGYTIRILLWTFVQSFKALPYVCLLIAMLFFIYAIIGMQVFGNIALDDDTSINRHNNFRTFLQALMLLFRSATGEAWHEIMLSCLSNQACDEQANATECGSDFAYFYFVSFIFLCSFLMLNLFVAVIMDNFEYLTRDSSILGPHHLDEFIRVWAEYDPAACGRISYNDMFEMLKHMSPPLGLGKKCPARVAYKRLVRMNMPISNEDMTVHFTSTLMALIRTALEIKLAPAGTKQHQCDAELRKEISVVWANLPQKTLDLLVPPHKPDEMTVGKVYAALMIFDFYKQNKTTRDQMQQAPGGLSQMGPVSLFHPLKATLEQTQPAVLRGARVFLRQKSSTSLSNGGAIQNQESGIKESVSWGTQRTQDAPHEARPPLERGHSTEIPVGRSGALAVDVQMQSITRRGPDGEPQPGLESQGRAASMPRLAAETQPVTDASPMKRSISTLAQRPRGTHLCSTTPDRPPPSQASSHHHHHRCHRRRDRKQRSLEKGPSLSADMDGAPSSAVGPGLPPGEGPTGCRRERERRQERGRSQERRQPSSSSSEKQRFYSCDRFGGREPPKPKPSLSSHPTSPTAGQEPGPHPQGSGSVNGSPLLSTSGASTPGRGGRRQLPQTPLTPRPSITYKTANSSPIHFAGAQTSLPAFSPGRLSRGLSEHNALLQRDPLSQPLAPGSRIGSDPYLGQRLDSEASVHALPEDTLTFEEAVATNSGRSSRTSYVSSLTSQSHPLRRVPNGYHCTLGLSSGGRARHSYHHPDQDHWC
human N-type Ca channel, sequence (P54284 whole entry partner): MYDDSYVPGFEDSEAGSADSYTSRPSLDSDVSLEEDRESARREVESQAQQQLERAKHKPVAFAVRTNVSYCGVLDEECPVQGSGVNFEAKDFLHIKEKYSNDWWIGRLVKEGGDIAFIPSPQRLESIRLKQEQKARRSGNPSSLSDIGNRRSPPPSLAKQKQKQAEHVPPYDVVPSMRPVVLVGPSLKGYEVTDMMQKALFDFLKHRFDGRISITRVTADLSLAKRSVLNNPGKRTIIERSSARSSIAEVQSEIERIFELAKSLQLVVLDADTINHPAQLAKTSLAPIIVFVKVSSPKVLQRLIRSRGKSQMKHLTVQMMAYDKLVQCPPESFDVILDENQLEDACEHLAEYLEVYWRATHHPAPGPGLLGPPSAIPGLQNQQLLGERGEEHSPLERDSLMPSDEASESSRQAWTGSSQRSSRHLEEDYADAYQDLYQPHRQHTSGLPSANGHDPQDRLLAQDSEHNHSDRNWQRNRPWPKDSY
human N-type Ca channel, sequence (P54289 25-956 partner limits assumed): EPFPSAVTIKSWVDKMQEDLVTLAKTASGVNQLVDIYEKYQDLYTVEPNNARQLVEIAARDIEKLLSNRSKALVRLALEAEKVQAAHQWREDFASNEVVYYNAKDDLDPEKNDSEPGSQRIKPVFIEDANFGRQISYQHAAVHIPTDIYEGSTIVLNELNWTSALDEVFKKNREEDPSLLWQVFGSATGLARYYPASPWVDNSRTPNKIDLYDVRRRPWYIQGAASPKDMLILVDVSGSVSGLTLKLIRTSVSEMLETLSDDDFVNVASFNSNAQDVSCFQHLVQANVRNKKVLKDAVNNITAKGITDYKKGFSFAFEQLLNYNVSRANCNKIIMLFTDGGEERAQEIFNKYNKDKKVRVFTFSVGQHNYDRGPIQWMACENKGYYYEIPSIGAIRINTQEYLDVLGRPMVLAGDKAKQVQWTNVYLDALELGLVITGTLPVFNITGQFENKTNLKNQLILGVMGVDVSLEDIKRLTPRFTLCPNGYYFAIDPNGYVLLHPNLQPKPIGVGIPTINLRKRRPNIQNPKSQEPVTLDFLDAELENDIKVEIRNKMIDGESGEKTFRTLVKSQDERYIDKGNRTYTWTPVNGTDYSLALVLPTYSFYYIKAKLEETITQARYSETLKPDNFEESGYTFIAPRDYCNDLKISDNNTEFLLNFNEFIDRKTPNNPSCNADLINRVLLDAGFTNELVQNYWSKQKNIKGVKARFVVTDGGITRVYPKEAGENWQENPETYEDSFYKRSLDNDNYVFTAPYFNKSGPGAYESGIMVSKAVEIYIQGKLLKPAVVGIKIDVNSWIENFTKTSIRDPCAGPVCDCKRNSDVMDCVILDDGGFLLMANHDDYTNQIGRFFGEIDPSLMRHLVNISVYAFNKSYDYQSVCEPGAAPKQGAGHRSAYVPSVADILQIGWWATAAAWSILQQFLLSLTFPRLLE
human N-type Ca channel, sequence (P54289 957-1103 partner limits assumed): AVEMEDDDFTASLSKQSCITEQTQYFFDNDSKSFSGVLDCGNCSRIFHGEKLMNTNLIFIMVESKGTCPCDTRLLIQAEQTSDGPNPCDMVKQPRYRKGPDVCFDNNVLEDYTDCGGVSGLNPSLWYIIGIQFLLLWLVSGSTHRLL
Experimental: The recombinant cell line described above was used in the measurement of electrophysiological properties with QPatch (Sophion). […] Prior to the experiment, the flasks were moved to 30° C. and incubated for 48-72 hrs. On the day of assaying, cells were detached and harvested. The cell pellet was re-suspended in SMF4HEK (HyClone)/25 mM HEPS at 2-5 million/mL and placed on the QStirrer of the QPatch for 30-60 min prior to the start of the assay. […] Microtiter-Plate/Reference Buffer contained 140 mM TEA-Cl, 10 mM BaCl2, 0.8 mM MgCl2, 10 mM HEPES pH˜7.4 adjusted with TEA-OH/HCl, and ˜300 mOsm. Cells were transferred to a QPatch 48 plate and gigaseal was formed. The plate was perfused with intracellular and extracellular buffer. […] In brief, cells were depolarized from resting potential of −80 mV to +20 mV and current was recorded. Data was plotted as percent inhibition vs concentration of the compound and IC50 values were generated using Graphpad Prism non-linear regression analysis.

SMILES: COc1ccccc1-c1nc(C2CC(C)(C)OC(C)(C)C2)cn1-c1ccc(F)cc1 [Cpd 4, 1-(4-Fluorophenyl)-2-(2-methoxyphenyl)-4-(2,2,6,6-tetramethyltetrahydro-2H-pyran-4-yl)-1H-imidazole]
- pIC50 [1]: ≤ 5.00

SMILES: COc1ccccc1-c1nc(C2CC(C)(C)OC(C)(C)C2)cn1-c1ccc(C)nc1 [Cpd 5, 5-[2-(2-Methoxyphenyl)-4-(2,2,6,6-tetramethyltetrahydro-2H-pyran-4-yl)-1H-imidazol-1-yl]-2-methylpyridine]
- pIC50 [2]: ≤ 5.00

SMILES: COc1ccccc1-c1nc(C2CC(C)(C)OC(C)(C)C2)cn1-c1ccc(C)cn1 [Cpd 6, 2-[2-(2-Methoxyphenyl)-4-(2,2,6,6-tetramethyltetrahydro-2H-pyran-4-yl)-1H-imidazol-1-yl]-5-methylpyridine]
- pIC50 [1]: ≤ 5.00
- pIC50 [2]: ≤ 5.00

SMILES: COc1ncccc1-c1nc(C2CC(C)(C)OC(C)(C)C2)cn1Cc1cccc(Cl)c1 [Cpd 9, 3-(1-(3-chlorobenzyl)-4-(2,2,6,6-tetramethyltetrahydro-2H-pyran-4-yl)-1H-imidazol-2-yl)-2-methoxypyridine]
- Qpatch Pulse = 1 (percent inhibition) (concentration range 0.01-1 μM): 46%
- Qpatch Pulse = 15 (percent inhibition) (concentration range 0.01-1 μM): 37%

SMILES: COc1ncccc1-c1nc(C2CC(C)(C)OC(C)(C)C2)cn1-c1ccc(C#N)c(C)c1 [Cpd 15, 4-[2-(2-Methoxypyridin-3-yl)-4-(2,2,6,6-tetramethyltetrahydro-2H-pyran-4-yl)-1H-imidazol-1-yl]-2-methylbenzonitrile]
- N Type IC50 Data Qpatch Pulse = 1 [3]: poor fit
- N Type IC50 Data Qpatch Pulse = 15 [3]: poor fit

SMILES: COc1ncccc1-c1nc(C2CC(C)(C)OC(C)(C)C2)cn1-c1ccc(F)c(F)c1F [Cpd 16, 2-methoxy-3-(4-(2,2,6,6-tetramethyltetrahydro-2H-pyran-4-yl)-1-(2,3,4-trifluorophenyl)-1H-imidazol-2-yl)pyridine]
- N Type IC50 Data Qpatch Pulse = 1 [3]: poor fit
- N Type IC50 Data Qpatch Pulse = 15 [3]: poor fit

SMILES: COc1ccccc1-c1nc(C2CC(C)(C)OC(C)(C)C2)cn1-c1ccc(C#N)c(C)c1 [Cpd 21, 4-[2-(2-Methoxyphenyl)-4-(2,2,6,6-tetramethyltetrahydro-2H-pyran-4-yl)-1H-imidazol-1-yl]-2-methylbenzonitrile]
- Qpatch Pulse = 15 (percent inhibition) (concentration range 0.01-1 μM): 39%

SMILES: COc1ccc(-n2cc(C3CC(C)(C)OC(C)(C)C3)nc2-c2cccnc2OC)cc1F [Cpd 23, 3-[1-(3-Fluoro-4-methoxyphenyl)-4-(2,2,6,6-tetramethyltetrahydro-2H-pyran-4-yl)-1H-imidazol-2-yl]-2-methoxypyridine]
- Qpatch Pulse = 1 (percent inhibition) (concentration range 0.01-1 μM): 21%

SMILES: COc1cc(-n2cc(C3CC(C)(C)OC(C)(C)C3)nc2-c2cccnc2OC)ccc1F [Cpd 24, 3-[1-(4-Fluoro-3-methoxyphenyl)-4-(2,2,6,6-tetramethyltetrahydro-2H-pyran-4-yl)-1H-imidazol-2-yl]-2-methoxypyridine]
- Qpatch Pulse = 1 (percent inhibition) (concentration range 0.01-1 μM): 29%

SMILES: COc1ncccc1-c1nc(C2CC(C)(C)OC(C)(C)C2)cn1Cc1ccccc1Cl [Cpd 27, 3-[1-(2-Chlorobenzyl)-4-(2,2,6,6-tetramethyltetrahydro-2H-pyran-4-yl)-1H-imidazol-2-yl]-2-methoxypyridine]
- N Type IC50 Data Qpatch Pulse = 1 [3]: poor fit

SMILES: COc1ncccc1-c1nc(C2CC(C)(C)OC(C)(C)C2)cn1Cc1ccc(Cl)cc1 [Cpd 28, 3-[1-(4-Chlorobenzyl)-4-(2,2,6,6-tetramethyltetrahydro-2H-pyran-4-yl)-1H-imidazol-2-yl]-2-methoxypyridine]
- N Type IC50 Data Qpatch Pulse = 1 [3]: poor fit
- N Type IC50 Data Qpatch Pulse = 15 [3]: poor fit

SMILES: COc1ncccc1-c1nc(C2CC(C)(C)OC(C)(C)C2)cn1-c1ccc(C#N)c(C(F)(F)F)c1 [Cpd 29, 4-(2-(2-methoxypyridin-3-yl)-4-(2,2,6,6-tetramethyltetrahydro-2H-pyran-4-yl)-1H-imidazol-1-yl)-2-(trifluoromethyl)benzonitrile]
- N Type IC50 Data Qpatch Pulse = 1 [3]: poor fit
- N Type IC50 Data Qpatch Pulse = 15 [3]: poor fit

SMILES: COc1ncccc1-c1nc(C2CC(C)(C)OC(C)(C)C2)cn1-c1cccc(F)c1F [Cpd 31, 3-(1-(2,3-difluorophenyl)-4-(2,2,6,6-tetramethyltetrahydro-2H-pyran-4-yl)-1H-imidazol-2-yl)-2-methoxypyridine]
- N Type IC50 Data Qpatch Pulse = 15 [3]: poor fit

SMILES: COc1cc(-n2cc(C3CC(C)(C)OC(C)(C)C3)nc2-c2ccccc2OC)ccc1C#N [Cpd 34, 2-Methoxy-4-[2-(2-methoxyphenyl)-4-(2,2,6,6-tetramethyltetrahydro-2H-pyran-4-yl)-1H-imidazol-1-yl]benzonitrile]
- Qpatch Pulse = 1 (percent inhibition) (concentration range 0.01-1 μM): 38%

SMILES: COc1ncccc1-c1nc(C2CC(C)(C)OC(C)(C)C2)cn1-c1ccc(F)c(Cl)c1 [Cpd 46, 3-[1-(3-Chloro-4-fluorophenyl)-4-(2,2,6,6-tetramethyltetrahydro-2H-pyran-4-yl)-1H-imidazol-2-yl]-2-methoxypyridine]
- pIC50 [1]: ≤ 5.00

SMILES: COc1ncccc1-c1nc(C2CC(C)(C)OC(C)(C)C2)cn1-c1ccc(C(F)(F)F)nc1 [Cpd 54, 2-Methoxy-3-{4-(2,2,6,6-tetramethyltetrahydro-2H-pyran-4-yl)-1-[6-(trifluoromethyl)pyridin-3-yl]-1H-imidazol-2-yl}pyridine]
- N Type IC50 Data Qpatch Pulse = 1 (concentration range 0.01-1 μM): Poor fit
- N Type IC50 Data Qpatch Pulse = 15 (concentration range 0.01-1 μM): Poor fit

SMILES: CC1(C)CC(c2cn(-c3ccc(Cl)cc3)c(CC3CC3)n2)CC(C)(C)O1 [Cpd 55, 1-(4-Chlorophenyl)-2-(cyclopropylmethyl)-4-(2,2,6,6-tetramethyltetrahydro-2H-pyran-4-yl)-1H-imidazole]
- Qpatch Pulse = 1 (percent inhibition) (concentration range 0.01-1 μM): 48%

SMILES: CC1(C)CC(c2cn(-c3ccc(C(F)(F)F)nc3)c(CC3CC3)n2)CC(C)(C)O1 [Cpd 59, 5-[2-(Cyclopropylmethyl)-4-(2,2,6,6-tetramethyltetrahydro-2H-pyran-4-yl)-1H-imidazol-1-yl]-2-(trifluoromethyl)pyridine]
- N Type IC50 Data Qpatch Pulse = 1 [3]: poor fit
- N Type IC50 Data Qpatch Pulse = 15 [3]: poor fit

SMILES: CCOc1nccnc1-c1nc(C2CC(C)(C)OC(C)(C)C2)cn1-c1ccc(Cl)cc1 [Cpd 60, 2-[1-(4-Chlorophenyl)-4-(2,2,6,6-tetramethyltetrahydro-2H-pyran-4-yl)-1H-imidazol-2-yl]-3-ethoxypyrazine]
- N Type IC50 Data Qpatch Pulse = 15 [3]: poor fit

SMILES: COc1cnccc1-c1nc(C2CC(C)(C)OC(C)(C)C2)cn1-c1ccc(Cl)cc1 [Cpd 66, 4-(1-(4-chlorophenyl)-4-(2,2,6,6-tetramethyltetrahydro-2H-pyran-4-yl)-1H-imidazol-2-yl)-3-methoxypyridine]
- pIC50 [1]: ≤ 5.00

SMILES: COc1ccncc1-c1nc(C2CC(C)(C)OC(C)(C)C2)cn1-c1ccc(Cl)cc1 [Cpd 68, 3-(1-(4-chlorophenyl)-4-(2,2,6,6-tetramethyltetrahydro-2H-pyran-4-yl)-1H-imidazol-2-yl)-4-methoxypyridine]
- pIC50 [1]: ≤ 5.00

SMILES: COc1ncccc1-c1nc(C2CC(C)(C)OC(C)(C)C2)cn1-c1cc(F)ccc1F [Cpd 71, 3-(1-(2,5-difluorophenyl)-4-(2,2,6,6-tetramethyltetrahydro-2H-pyran-4-yl)-1H-imidazol-2-yl)-2-methoxypyridine]
- N Type IC50 Data Qpatch Pulse = 15 (concentration range 0.01-1 μM): poor fit

SMILES: COc1ncccc1-c1nc(C2CC(C)(C)OC(C)(C)C2)cn1-c1cc(F)cc(F)c1 [Cpd 72, 3-(1-(3,5-difluorophenyl)-4-(2,2,6,6-tetramethyltetrahydro-2H-pyran-4-yl)-1H-imidazol-2-yl)-2-methoxypyridine]
- N Type IC50 Data Qpatch Pulse = 1 (concentration range 0.01-1 μM): poor fit
- N Type IC50 Data Qpatch Pulse = 15 (concentration range 0.01-1 μM): poor fit

— patent US9974775B2, “Substituted imidazoles as N-type calcium channel blockers” (Janssen Pharmaceutica NV, priority 2013, dated 2018)
